Reference: patent publication US6087119A, “Method for determining the catalytic activity of factor IXa” (Roche Diagnostics GmbH, priority 1996, dated 2000)

Tests used:
rFIXa (human) [1] = target: T1, rFIXa (human) (Homo sapiens, UniProt P00740); experiment: Determination of the dissociation constant Ki according to DIXON, rFIXa; format: biochemical; set-up: coding for the FIX protease domain from amino acid position 181 to 415; Met (ATG start codon) (N); made in house; conditions: pH 8.5, 33% ethylene glycol
T1 sequence (P00740 227-461 limits assumed): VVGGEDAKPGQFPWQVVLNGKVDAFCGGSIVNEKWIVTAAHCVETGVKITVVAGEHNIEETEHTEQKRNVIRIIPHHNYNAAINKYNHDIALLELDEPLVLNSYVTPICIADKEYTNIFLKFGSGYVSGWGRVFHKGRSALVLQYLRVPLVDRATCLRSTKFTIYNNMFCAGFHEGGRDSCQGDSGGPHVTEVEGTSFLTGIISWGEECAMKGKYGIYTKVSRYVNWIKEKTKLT
T1 sequence (P00740 131-226 limits assumed): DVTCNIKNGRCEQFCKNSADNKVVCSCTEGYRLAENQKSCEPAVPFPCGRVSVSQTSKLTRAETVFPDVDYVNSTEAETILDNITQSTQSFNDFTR
Experimental: Determination of the Dissociation Constant Ki According to the Method of DIXON
42 mmol/l Tris-HCl, pH 8.5
inhibitor in stepped concentrations (0, 20.4 and 40.8 μmol/l) […]
0.14 μmol/l rFIXa (human) […]
TIPPS-(3-Am)Phe-iNip-OH was used as the inhibitor and the inhibitory effect was determined as an example for two substrates under optimal conditions (pH 8.5, 33% ethylene glycol).

rFIXa (human) [2] = target: T1, rFIXa (human); experiment: Influence of known protease inhibitors on the activity of rFIXa; format: biochemical; set-up: coding for the FIX protease domain from amino acid position 181 to 415; Met (ATG start codon) (N); made in house
Experimental: Specific FIXa inhibitors can be identified by the inhibition of FIXa activity. For this purpose the FIXa activity is determined with a substrate of the R-D-Xxx-Gly-Arg-pNA type (Xxx=hydrophobic amino acid) in the absence and presence of the substance to be tested or of a substance mixture and the percentage inhibition is calculated from the quotients. The inhibition constant Ki is determined from the inhibition kinetics. The measurement signal is amplified by the presence of high concentrations of certain alcohols (preferably ethylene glycol).
200 μl buffer (100 mmol/l Tris-HCl, 100 mmol/l NaCl, 5 mmol/l CaCl2, 20-40% alcohol, pH 7-9) the buffer contains the inhibitor at various concentrations […]
The reaction can also be terminated after 5-10 min by stopping with acetic acid (25 μl, 50%), the absorbance is determined at 405 nm against a reagent blank.
Influence of Known Protease Inhibitors on the Activity of rFIXa Using Different pHs, Alcohols and Alcohol Concentrations 42 mmol/l Tris-HCl, pH 7.4 or 8.5 substrate MeSO2 -D-CHG-Gly-Arg-pNA (1.02 mmol/l) […]
inhibitor at stepped concentrations (4.1-163 μmol/l)
Known synthetic inhibitors of the 3-amidinophenylalanine type were used as inhibitors (Sturzebecher et al, J. Enzyme. Inhibition 9 (1995) 87 and WO 92/08709) (1991)). The inhibitory effect was examined at a low and at a high alcohol concentration as an example.

CC(C)c1cc(C(C)C)c(S(=O)(=O)NC(Cc2cccc(C(=N)N)c2)C(=O)N2CCC(C(=O)O)CC2)c(C(C)C)c1 (centres unmarked) [TIPPS-(3-Am)Phe-iNip-OH, Nα-(2,4,6-triisopropylbenzenesulfonyl)-3-amidino-(D,L)-phenylalanine-isonipecotic acid]
1/V (rFIXa (human) [1]; inhibitor 20.4 μmol/l, MeSO2-D-CHG-Gly-Arg-pNA 0.25 μmol/l, 0.057 μmol/l rFIXa): 78.1 min/mA | 1/V (rFIXa (human) [1]; inhibitor 20.4 μmol/l, MeSO2-D-CHG-Gly-Arg-pNA 0.51 μmol/l, 0.057 μmol/l rFIXa): 55.6 min/mA | 1/V (rFIXa (human) [1]; inhibitor 20.4 μmol/l, MeSO2-D-CHG-Gly-Arg-pNA 1.02 μmol/l, 0.057 μmol/l rFIXa): 23.8 min/mA | 1/V (rFIXa (human) [1]; inhibitor 20.4 μmol/l, MeSO2-D-HHT-Gly-Arg-pNA 0.25 μmol/l, 0.14 μmol/l rFIXa): 69.4 min/mA | 1/V (rFIXa (human) [1]; inhibitor 20.4 μmol/l, MeSO2-D-HHT-Gly-Arg-pNA 0.51 μmol/l, 0.14 μmol/l rFIXa): 43.5 min/mA | 1/V (rFIXa (human) [1]; inhibitor 20.4 μmol/l, MeSO2-D-HHT-Gly-Arg-pNA 1.02 μmol/l, 0.14 μmol/l rFIXa): 16.6 min/mA | 1/V (rFIXa (human) [1]; inhibitor 40.8 μmol/l, MeSO2-D-CHG-Gly-Arg-pNA 0.25 μmol/l, 0.057 μmol/l rFIXa): 153 min/mA | 1/V (rFIXa (human) [1]; inhibitor 40.8 μmol/l, MeSO2-D-CHG-Gly-Arg-pNA 0.51 μmol/l, 0.057 μmol/l rFIXa): 109 min/mA | 1/V (rFIXa (human) [1]; inhibitor 40.8 μmol/l, MeSO2-D-CHG-Gly-Arg-pNA 1.02 μmol/l, 0.057 μmol/l rFIXa): 44.6 min/mA | 1/V (rFIXa (human) [1]; inhibitor 40.8 μmol/l, MeSO2-D-HHT-Gly-Arg-pNA 0.25 μmol/l, 0.14 μmol/l rFIXa): 137 min/mA | 1/V (rFIXa (human) [1]; inhibitor 40.8 μmol/l, MeSO2-D-HHT-Gly-Arg-pNA 0.51 μmol/l, 0.14 μmol/l rFIXa): 90.9 min/mA | 1/V (rFIXa (human) [1]; inhibitor 40.8 μmol/l, MeSO2-D-HHT-Gly-Arg-pNA 1.02 μmol/l, 0.14 μmol/l rFIXa): 31.2 min/mA | Ki (rFIXa (human) [1]; rFIXa, substrate MeSO2-D-CHG-Gly-Arg-pNA): 16 µM | Ki (rFIXa (human) [1]; recombinant FIXa, substrate MeSO2-D-HHT-Gly-Arg-pNA): 12 µM | Inhibition of the activity of factor IXa (in %) (rFIXa (human) [2]; inhibitor 4.1 μmol/l, pH 7.4, 4.1% ethanol, 0.57 μmol/l rFIXa): 89.5% | Inhibition of the activity of factor IXa (in %) (rFIXa (human) [2]; inhibitor 4.1 μmol/l, pH 7.4, 33% ethylene glycol, 0.057 μmol/l rFIXa): 86.9% | Inhibition of the activity of factor IXa (in %) (rFIXa (human) [2]; inhibitor 4.1 μmol/l, pH 8.5, 4.1% ethanol, […] rFIXa): 90.6% | Inhibition of the activity of factor IXa (in %) (rFIXa (human) [2]; inhibitor 4.1 μmol/l, pH 8.5, 33% ethylene glycol, […] rFIXa): 85.6% | Inhibition of the activity of factor IXa (in %) (rFIXa (human) [2]; inhibitor 8.2 μmol/l, pH 7.4, 4.1% ethanol, 0.57 μmol/l rFIXa): 87.6% | Inhibition of the activity of factor IXa (in %) (rFIXa (human) [2]; inhibitor 8.2 μmol/l, pH 7.4, 33% ethylene glycol, 0.057 μmol/l rFIXa): 79.4% | Inhibition of the activity of factor IXa (in %) (rFIXa (human) [2]; inhibitor 8.2 μmol/l, pH 8.5, 4.1% ethanol, […] rFIXa): 85.2% | Inhibition of the activity of factor IXa (in %) (rFIXa (human) [2]; inhibitor 8.2 μmol/l, pH 8.5, 33% ethylene glycol, […] rFIXa): 72.8% | Inhibition of the activity of factor IXa (in %) (rFIXa (human) [2]; inhibitor 16.3 μmol/l, pH 7.4, 4.1% ethanol, 0.57 μmol/l rFIXa): 76.2% | Inhibition of the activity of factor IXa (in %) (rFIXa (human) [2]; inhibitor 16.3 μmol/l, pH 7.4, 33% ethylene glycol, 0.057 μmol/l rFIXa): 61.7% | Inhibition of the activity of factor IXa (in %) (rFIXa (human) [2]; inhibitor 16.3 μmol/l, pH 8.5, 4.1% ethanol, […] rFIXa): 74.8% | Inhibition of the activity of factor IXa (in %) (rFIXa (human) [2]; inhibitor 16.3 μmol/l, pH 8.5, 33% ethylene glycol, […] rFIXa): 58.0% | Inhibition of the activity of factor IXa (in %) (rFIXa (human) [2]; inhibitor 40.8 μmol/l, pH 7.4, 4.1% ethanol, 0.57 μmol/l rFIXa): 55.8% | Inhibition of the activity of factor IXa (in %) (rFIXa (human) [2]; inhibitor 40.8 μmol/l, pH 7.4, 33% ethylene glycol, 0.057 μmol/l rFIXa): 38.9% | Inhibition of the activity of factor IXa (in %) (rFIXa (human) [2]; inhibitor 40.8 μmol/l, pH 8.5, 4.1% ethanol, […] rFIXa): 55.2% | Inhibition of the activity of factor IXa (in %) (rFIXa (human) [2]; inhibitor 40.8 μmol/l, pH 8.5, 33% ethylene glycol, […] rFIXa): 33.6% | Inhibition of the activity of factor IXa (in %) (rFIXa (human) [2]; inhibitor 81.6 μmol/l, pH 7.4, 4.1% ethanol, 0.57 μmol/l rFIXa): 36.3% | Inhibition of the activity of factor IXa (in %) (rFIXa (human) [2]; inhibitor 81.6 μmol/l, pH 7.4, 33% ethylene glycol, 0.057 μmol/l rFIXa): 21.2% | Inhibition of the activity of factor IXa (in %) (rFIXa (human) [2]; inhibitor 81.6 μmol/l, pH 8.5, 4.1% ethanol, […] rFIXa): 35.3% | Inhibition of the activity of factor IXa (in %) (rFIXa (human) [2]; inhibitor 81.6 μmol/l, pH 8.5, 33% ethylene glycol, […] rFIXa): 20.7% | Inhibition of the activity of factor IXa (in %) (rFIXa (human) [2]; inhibitor 163 μmol/l, pH 7.4, 4.1% ethanol, 0.57 μmol/l rFIXa): 23.8% | Inhibition of the activity of factor IXa (in %) (rFIXa (human) [2]; inhibitor 163 μmol/l, pH 7.4, 33% ethylene glycol, 0.057 μmol/l rFIXa): 15.0% | Inhibition of the activity of factor IXa (in %) (rFIXa (human) [2]; inhibitor 163 μmol/l, pH 8.5, 4.1% ethanol, […] rFIXa): 20.8% | Inhibition of the activity of factor IXa (in %) (rFIXa (human) [2]; inhibitor 163 μmol/l, pH 8.5, 33% ethylene glycol, […] rFIXa): 15.8%
